According to paper PMC10914731, “Homo-BacPROTAC-induced degradation of ClpC1 as a strategy against drug-resistant mycobacteria” (Nature Communications, 2024):
Converted amounts (≈) assume the structure as drawn. “And” between values parts separate entries of the source, which are not always exact repeats. Equal entries are not always repeated. Where two headings read alike, the source gives them in different places. *1 amine or outer side, *2 acyl side, *3 side chain or, on linkers, in order; H or OH if unused. Where a SMILES comes first, the peptide text is derived from it. [ ]: non-standard residue; d: D form. X1 = C#CCn1cc(C[C@H](N[*:1])C(=O)[*:2])c2ccccc21; NMeLeu(5-OH,4R) = CN[C@@H](C[C@@H](C)CO)C(=O)O; Phe(βR-OMe) = CO[C@H](c1ccccc1)[C@H](N)C(=O)O; NMeL = CN[C@@H](CC(C)C)C(=O)O

Key:
[1] = assay type: in vitro ADME, Rat
Summary of the method: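 Compound (1 µmol/l) was incubated at 37 °C with 0.5 mg/ml liver microsomes in 100 mM Tris-HCl pH 7.5, 6.5 mM MgCl2 and 1 mM NADPH. Reactions were quenched with acetonitrile at several time points and parent remaining quantified by HPLC-MS/MS; first-order half-lives were converted to clearance as %Qh via the well-stirred model.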

[2] = tested on: Mtb # 8673; assay: microbe, parasite or virus in culture; assay type: cell-based
[3] = tested on: Klebsiella pneumoniae; assay: MIC ESKAPES panel, Klebsiella pneumoniae; assay type: cell-based
Protocol: (§1) Minimum inhibitory concentration (MIC) against ESKAPES panel of Gram positive and Gram negative pathogens (Enterococcus faecium, Staphylococcus aureus, Klebsiella pneumoniae, Acinetobacter baumannii, Pseudomonas aeruginosa, Enterobacter cloacae and Salmonella typhimurium [ESKAPES panel]) were determined at the FNDR by the standard broth dilution method [CLSI, M100]. […] Mueller Hinton broth (MHB) medium was used to grow ESKAPES panel strains. The individual cultures were added as 200 μL (inoculum of 3–7 × 10^5 cfu/ml) to the respective assay plates in each well to all columns, except the media control (200 μL of medium). […] The assay plates were incubated at 37 °C, and the results were noted on the 2nd day as turbidometric readout. The clear wells indicated inhibition of growth, while the turbid wells indicated uninhibited growth.

[4] = tested on: Acinetobacter baumannii; assay: MIC ESKAPES panel, Acinetobacter baumannii; assay type: cell-based
Protocol: as §1

[5] = tested on: Pseudomonas aeruginosa; assay: MIC ESKAPES panel, Pseudomonas aeruginosa; assay type: cell-based
Protocol: as §1

[6] = tested on: Msm #607; assay: Minimum bactericidal concentration (MBC), Msm #607; assay type: cell-based, Mycobacterium smegmatis; conditions: Mycolicibacterium smegmatis
[7] = tested on: Mtb H37Rv in THP-1 macrophages; assay: Intracellular MIC assay in THP-1 macrophages; assay type: cell-based, Mycobacterium tuberculosis; design: Emax: unit not given here
[8] = in vivo; assay type: in vivo, BALB/cAnNCrl mice
Protocol: The in-life experimental procedures were conducted in strict compliance with German and European animal welfare legislation in an AAALAC-accredited facility. Male BALB/cAnNCrl mice (Charles River Laboratories Research Models and Services, 97633 Sulzfeld, Germany) were used. Animals were 9 weeks old at dosing with a body weight of 21.6–24.3 g. Animals were delivered free of pathogens according to FELASA recommendations with a health certificate provided by the breeder. Upon receipt, the state of health and sex was checked. Animals acclimatized for at least 5 days before the commencement of the in-life phase. During acclimation, animals were group-housed in individually ventilated cages, on birch wood granulate bedding with species-specific enrichment (nesting material, mouse igloo, gnawing wood). During experimental conduct, animals were housed in conventional cages with elevated grid floors. Grid floor was used to avoid contamination with test item material excreted via urine and feces and subsequent reuptake during fur grooming. No bedding and enrichment were provided except a cage divider, which can be used as a shelter. Animals always had unlimited access to food and water and received a pelleted, total pathogen-free maintenance diet and tap drinking water, sterilized by filter.
In case of incomplete dissolution, the formulation was filtered at 40 °C (non-pyrogenic sterile-R filter, 0.2 µm). All formulations were stirred warm until administration. Actual test item content was determined bioanalytically.
Male BALB/cAnNCrl mice (n = 3 per test item and administration route) received a bolus dose of the formulated test item(s) (1 mg/kg iv, 30 mg/kg po) at t = 0 h, and whole blood samples were collected subsequently (35 µl at 0.1 (iv) / 0.25 (po), 0.5, 1, 2, 4, 6 h; 600 µl at sacrifice after 24 h). Animals were euthanized by exsanguination in deep isoflurane anesthesia. Whole blood samples were immediately stored on ice at about 4 °C. Plasma was separated by centrifugation at approximately 10,000 × g for 5 m at +4 °C. Centrifugation of each blood sample was started within 10 m after collection. A single aliquot of at least 15 µL of plasma was prepared and immediately stored at −20 ± 5 °C.
Sample proteins were precipitated with ACN (1 + 12, v/v) containing internal standard, and supernatants analyzed by quantitative UPLC-MS/MS: Phenomenex Luna Omega C18, 2.1 × 50 mm, 1.6 µm, 40 °C, gradient between 10% - 90% ACN with 0.1% formic acid. LogD determination: Lipophilicity of the test items, expressed as chromLogD7.5, was assessed by measuring their chromatographic retention times on C18-material. The chromatographic retention versus logD7.5 values of a series of thirteen n-alkan-2-ones (2-butanone – 2-hexadecanone) served as lipophilicity calibration.

[9] = Gram-Negative Bacteria, replicates 1-3
[10] = iv bolus, individual animals 1-3
[11] = male, BALB/cAnNCrl, mouse, in vivo, iv, 1.062 umol/kg, iv bolus, individual animals 1-3
[12] = male, BALB/cAnNCrl, mouse, in vivo, iv, 1.062 umol/kg, iv bolus, mice, Mean

C#CCn1cc(C[C@@H]2NC(=O)[C@H](C(C)C)NC(=O)[C@H](CC(C)C)N(C)C(=O)[C@H](C(C)C)NC(=O)[C@H]([C@H](OC)c3ccccc3)NC(=O)[C@H](C)NC(=O)[C@H](C[C@@H](C)CO)N(C)C2=O)c2ccccc21 [Compound 5] (cyclo(A[Phe(βR-OMe)]V[NMeL]V[X1][NMeLeu(5-OH,4R)]))
Microsomal Stability Rat QH ([1]; Rat): >87.900% | Microsomal Stability Rat ([1]; clearance in microsomes): > 88 %Qh | MIC ([2]; Mycobacterium tuberculosis, mean, n = 2 well replicates): 0.2 µM and 0.2 µg/mL | MIC ([2]; Mycobacterium tuberculosis, single well replicates): 0.19 µM and 0.18 µg/mL | MIC ([2]; single well replicates): 0.19 µM (≈ 0.179 µg/mL) | MIC Mtb # 8673 ([2]; single well replicates): 0.18 µg/mL (≈ 0.191 µM) | MIC [3, 9]: >50 µM | MIC ([3]; Klebsiella pneumoniae, Gram negative, n = 3 well replicates): > 50 µM | MIC ([3]; Klebsiella pneumoniae, Gram-Negative Bacteria, replicates 1-3): > 47 µg/mL | MIC ([4]; Gram negative, n = 3 well replicates, read-out: MIC Acinetobacter baumanii): > 50 µM | MIC ([4]; Gram-Negative Bacteria, replicates 1-3, read-out: MIC Acinetobacter baumannii): > 50 µM and > 47 µg/mL | MIC [5, 9]: >50 µM | MIC ([5]; Pseudomonas aeruginosa, Gram negative, n = 3 well replicates): > 50 µM | MIC ([5]; Pseudomonas aeruginosa, Gram-Negative Bacteria, replicates 1-3): > 47 µg/mL | MBC ([6]; ATCC607, read-out: MBC (from Set 3) Msm ATCC 607): > 47 µg/mL and > 50 µM | MBC ([6]; read-out: MBC Msm #607, individual example): > 50 µM and > 47.1 µg/mL | Emax [7]: 1.14 | intracellular viable mycobacteria ([7]; 0.195µM, Day 4, well replicates): 5.51 log10 cfu/ml | intracellular viable mycobacteria ([7]; 0.195µM, Day 7, well replicates): 5.68 log10 cfu/ml | intracellular viable mycobacteria ([7]; 0.781µM, Day 4, well replicates): 4.46 log10 cfu/ml and 4.51 log10 cfu/ml | intracellular viable mycobacteria ([7]; 3.125µM, Day 4, well replicates): 4.19 log10 cfu/ml and 4.2 log10 cfu/ml | intracellular viable mycobacteria ([7]; 3.125µM, Day 7, well replicates): 4.96 log10 cfu/ml | AUC0-inf/Dose [8, 10]: 180 h nM/(nmol kg-1) and 169 h nM/(nmol kg-1) and 158 h nM/(nmol kg-1) | AUC0-t/Dose [8, 10]: 177 h nM/(nmol kg-1) and 161 h nM/(nmol kg-1) and 154 h nM/(nmol kg-1) | CL [8, 10]: 98.5 mL/min/kg and 106 mL/min/kg | CL PL QH [8, 10]: 103.0% and 109.0% and 117.0% | Cmax/Dose [8, 10]: 488 nM/(nmol kg-1) and 361 nM/(nmol kg-1) and 396 nM/(nmol kg-1) | MRT [8, 10]: 54 min and 42 min | Plasma concentration 0.1 h [8, 10]: 518 nmol/L and 384 nmol/L and 421 nmol/L | Plasma concentration 0.5 h [8, 10]: 85.1 nmol/L and 88.1 nmol/L and 71.5 nmol/L | Plasma concentration 1 h [8, 10]: 33.6 nmol/L and 37.9 nmol/L and 32.6 nmol/L | Plasma concentration 2 h [8, 10]: 12.3 nmol/L and 14.2 nmol/L and 13.4 nmol/L | Plasma concentration 4 h [8, 10]: 2.7 nmol/L and 4.8 nmol/L and 2.9 nmol/L | Vss [8, 10]: 5.6 L/kg and 4.6 L/kg | t1/2 [8, 10]: 1.3 h | AUC0-inf/Dose ([8]; iv bolus, mice, Mean): 169 h nM/(nmol kg-1) | AUC0-t/Dose ([8]; iv bolus, mice, Mean): 164 h nM/(nmol kg-1) | CL PL QH ([8]; iv bolus, mice, Mean): 110.0% | Cmax/Dose ([8]; iv bolus, mice, Mean): 415 nM/(nmol kg-1) | Plasma concentration 0.1 h ([8]; iv bolus, mice, Mean): 441 nmol/L | Plasma concentration 0.5 h ([8]; iv bolus, mice, Mean): 81.6 nmol/L | Plasma concentration 1 h ([8]; iv bolus, mice, Mean): 34.7 nmol/L | Plasma concentration 2 h ([8]; iv bolus, mice, Mean): 13.3 nmol/L | Plasma concentration 4 h ([8]; iv bolus, mice, Mean): 3.5 nmol/L | clearance [8, 11]: 92.3 mL/min/kg | half-life [8, 11]: 54 min | MRT ([8]; male, BALB/cAnNCrl, mouse, in vivo, iv, 1.062 umol/kg, iv bolus, individual animals 1-3, read-out: MRT): 36 min | Vd ([8]; male, BALB/cAnNCrl, mouse, in vivo, iv, 1.062 umol/kg, iv bolus, individual animals 1-3, read-out: Vss): 3.5 L/kg | clearance [8, 12]: 98.8 mL/min/kg | half-life [8, 12]: 60 min | MRT ([8]; male, BALB/cAnNCrl, mouse, in vivo, iv, 1.062 umol/kg, iv bolus, mice, Mean, read-out: MRT): 48 min | Vd ([8]; male, BALB/cAnNCrl, mouse, in vivo, iv, 1.062 umol/kg, iv bolus, mice, Mean, read-out: Vss): 4.5 L/kg | Vd ([8]; male, BALB/cAnNCrl, mouse, in vivo, iv, 1 mg/kg, mice, 1 mg kg-1 iv bolus, read-out: VSS): 4.54 L/kg | clearance ([8]; male, BALB/cAnNCrl, mouse, in vivo, iv, 1 mg/kg, plasma clearance, mice, 1 mg kg-1 iv bolus): 98.8 mL/min/kg | half-life ([8]; male, BALB/cAnNCrl, mouse, in vivo, iv, 1 mg/kg, plasma, mice, 1 mg kg-1 iv bolus): 61.8 min | AUC ([8]; mouse, in vivo, iv): 164 h nM/(nmol kg-1) | Cmax ([8]; mouse, in vivo, iv): 415 nM/(nmol kg-1) | Plasma concentration 6 h ([8]; mouse, in vivo, iv): BLOQ | Plasma concentration 24 h ([8]; mouse, in vivo, iv): BLOQ
